The subject of one assay is HCT116 cells. Kind of assay: cells. The assay is classed as cell-based. The following applies: FMCA, 72 h incubation, 37 °C, 384-well, 1000 cells/well, mean and 95 % confidence interval, three independent experiments. The method, then:
(§1) Three fundamentally different cell lines were chosen for the assessment of cytotoxicity: HepG2 cells, which derive from a human hepatoblastoma; ^[43] HCT116 cells, a common model for the study of metastatic colorectal carcinoma;[ ^44 , ^45 ] and RPMI 8226 cells, which originate from multiple myeloma. ^[46]
(§2) The cells, upon overnight cultivation, were treated with MMAE (5), MMAF (6), azastatin‐OMe (7), N‐ethyl azastatin‐OMe (28), N‐Cbz azastatin‐OMe (27) or doxorubicin[ ^47 , ^48 ] at concentrations ranging from 100 μM to 10 pM and after 72 hours of incubation, the survival index relative to control was determined by The Fluorometric Microculture Cytotoxicity Assay (FMCA). ^[49] Based upon the concentration dependent proportion of surviving cells, the half maximal inhibitory concentration (IC50) of each compound was calculated (see Table 1).
(§3) MMAE and MMAF were purchased from Combi‐Blocks (US). Doxorubicin hydrochloride was obtained from Sigma‐Aldrich/Merck (Germany). HepG2 cells (human hepatocellular carcinoma cells, ATCC), were grown in Eagle's Minimum Essential Medium (ATCC). RPMI 8226 (multiple myeloma cells, ATCC) were grown in complete RPMI medium (ATCC). HCT116 cells (colon carcinoma cells, Anticancer Inc.) were cultured in McCoy′s 5 A Modified Medium (Sigma‐Aldrich). All media were supplemented with 10 % foetal bovine serum, penicillin/streptomycin (100 U/100 μg/mL) and 2 mM L‐glutamine. Cells were seeded in 384‐well assay plates at a density of 1000 cells/well. The cells were incubated over night at 37 °C and test compounds were added, followed incubation for an additional 72 h at 37 °C. The fraction of surviving cells was analysed by a fluorometric microculture cytotoxicity assay, based on hydrolysis of fluorescein diacetate to fluorescein by cells with intact plasma membranes, as recently described. ^[49] IC50‐values were calculated from three independent experiments (see SI, mean±SEM). All tested concentrations were assessed in multiple wells (n=2‐4) in each experiment. The IC50‐values were determined with nonlinear regression analysis using GraphPad Prism 8 Software Package (US).

A further assay deals with RPMI 8226 cells. The assay can be described thus: cells. Conditions: FMCA, 72 h incubation, 37 °C, 384-well, 1000 cells/well, mean and 95 % confidence interval, three independent experiments. Type of assay: cell-based. The method, then: as §1, §2, §3
Another assay concerns HepG2 cells. Kind of assay: cells. Type of assay: cell-based, human. The following applies: FMCA, 72 h incubation, 37 °C, 384-well, 1000 cells/well, mean and 95 % confidence interval, three independent experiments. The method, then: as §1, §2, §3
Assay [1] deals with HepG2, HCT116 and RPMI 8226 cells. The assay can be described thus: FMCA cytotoxicity, span over all three tested cell lines. Type of assay: cell-based. Conditions: 72 h; for pIC50: lowest to highest mean IC50 in HepG2, HCT116, RPMI 8226, read-out: IC50 range over the three cell lines. The method, then:
as §1, §2, §3

pIC50: −log10 of the molar value. Where a name gives a salt, the structure may show the parent alone. Non-standard residues stand in square brackets, D forms with d. Residues, ends and D or L forms follow the SMILES beside them. Dolaproine = CO[C@@H]([C@@H]1CCCN1)[C@@H](C)C(=O)O; Dil = CC[C@H](C)[C@H](NC)[C@@H](CC(=O)O)OC; NMeV = CN[C@H](C(=O)O)C(C)C

As usually defined, the pIC50 is the negative decadic logarithm of the IC50, by convention in mol/L. With `CCN[C@H]1C[C@@H]([C@H](OC)[C@@H](C)C(=O)N[C@@H](Cc2ccccc2)C(=O)OC)N(C(=O)C[C@@H](OC)[C@H]([C@@H](C)CC)N(C)C(=O)[C@@H](NC(=O)[C@H](C(C)C)N(C)C)C(C)C)C1` [N‐Et Aza‐OMe, 28, N‐ethyl azastatin methyl ester], the pIC50 in the assay on HCT116 cells was 7.00; with RPMI 8226 cells, 8.32; in the assay on HepG2 cells it was 7.96; in assay [1], 7.00 to 8.32.
For the compound `CC[C@H](C)[C@@H]([C@@H](CC(=O)N1C[C@@H](NC(=O)OCc2ccccc2)C[C@H]1[C@H](OC)[C@@H](C)C(=O)N[C@@H](Cc1ccccc1)C(=O)OC)OC)N(C)C(=O)[C@@H](NC(=O)[C@H](C(C)C)N(C)C)C(C)C` [Cbz‐Aza‐OMe, 27, Cbz‐azastatin methyl ester], the negative-log IC50 (pIC50) with HCT116 cells was 8.52; in the assay with RPMI 8226 cells, 9.82; in the assay with HepG2 cells, 9.89; in assay [1], 8.52 to 9.89.
Consider `CC[C@H](C)[C@@H]([C@@H](CC(=O)N1CCC[C@H]1[C@H](OC)[C@@H](C)C(=O)N[C@@H](Cc1ccccc1)C(=O)O)OC)N(C)C(=O)[C@@H](NC(=O)[C@@H](NC)C(C)C)C(C)C` [MMAF, 6, monomethylauristatin F, reference compound] (H-[NMeV]V[Dil][Dolaproine]F-OH), for which, in assay [1] (ratio of IC50 values), the “fold less potent than MMAE (5) in each of the cell lines” value is on record as “more than 100 fold”.
Take `COc1cccc2c1C(=O)c1c(O)c3c(c(O)c1C2=O)C[C@@](O)(C(=O)CO)C[C@@H]3O[C@H]1C[C@H](N)[C@H](O)[C@H](C)O1` [Doxorubicin, Doxorubicin hydrochloride, reference compound]: the pIC50 in the assay with HCT116 cells (Homo sapiens, HCT-116) was 6.36; with RPMI 8226 cells (Homo sapiens, RPMI-8226) it was 7.31; with HepG2 cells (Homo sapiens, HepG2) it was 6.40.
On to `CC[C@H](C)[C@@H]([C@@H](CC(=O)N1C[C@@H](N)C[C@H]1[C@H](OC)[C@@H](C)C(=O)N[C@@H](Cc1ccccc1)C(=O)OC)OC)N(C)C(=O)[C@@H](NC(=O)[C@H](C(C)C)N(C)C)C(C)C` [Aza‐OMe, 7, Azastatin methyl ester], for which the pIC50 in the assay with HCT116 cells was 6.77; in the assay on RPMI 8226 cells, 8.01; with HepG2 cells, 7.70; in assay [1], 6.77 to 8.01.

Values taken from article PMC7756782, “Rational Design of Azastatin as a Potential ADC Payload with Reduced Bystander Killing” (Chemmedchem, 2020).
